Read-outs that look alike come from different tables or passages of the source.
How the values were obtained:
LXR α LBD protein = LXR α LBD protein (Homo sapiens (Human), UniProt Q13133); experiment: LXR α radioligand binding assay (SPA, competition with [3H]TO901317); conditions: read-out: LXRα Binding Ki
[1] = biological target: Gal4 DNA binding domain fused to the LBD of LXRα in HEK293 cells (Homo sapiens (Human), UniProt Q13133); experiment: LXR luciferase transcriptional reporter gene assay, agonist mode, LXRα; format: cell-based; conditions: for EC50: read-out: Cell LXRα EC50
[2] = biological target: Gal4 DNA binding domain fused to the LBD of LXRβ in HEK293 cells (Homo sapiens (Human), UniProt P55055); experiment: cell-based
LXR β LBD protein = LXR β LBD protein (Homo sapiens (Human), UniProt P55055); experiment: biochemical; format: binding
[3] = Biological Test Example 2, agonist mode
[4] = Biological Test Example 1, read-out: LXRβ Binding Ki
[5] = agonist mode, read-out: Cell LXRβ EC50

Gal4 DNA binding domain fused to the LBD of LXRα in HEK293 cells, sequence (Q13133 209-447): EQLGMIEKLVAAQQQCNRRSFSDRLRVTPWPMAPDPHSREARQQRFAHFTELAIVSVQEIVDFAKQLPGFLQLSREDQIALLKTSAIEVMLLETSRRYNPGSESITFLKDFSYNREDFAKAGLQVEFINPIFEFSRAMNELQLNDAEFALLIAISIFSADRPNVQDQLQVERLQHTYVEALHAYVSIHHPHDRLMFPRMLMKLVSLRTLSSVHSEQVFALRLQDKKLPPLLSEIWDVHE
LXR α LBD protein, sequence (Q13133 209-447): as above
LXR β LBD protein, sequence (P55055 222-460 limits assumed): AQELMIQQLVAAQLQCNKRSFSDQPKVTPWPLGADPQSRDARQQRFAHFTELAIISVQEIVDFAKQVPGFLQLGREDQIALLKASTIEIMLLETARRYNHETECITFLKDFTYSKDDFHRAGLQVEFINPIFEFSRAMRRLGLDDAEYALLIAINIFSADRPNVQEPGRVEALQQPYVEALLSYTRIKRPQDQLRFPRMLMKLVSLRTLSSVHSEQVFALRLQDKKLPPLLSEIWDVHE
Gal4 DNA binding domain fused to the LBD of LXRβ in HEK293 cells, sequence (P55055 222-460 limits assumed): as above

Structure (SMILES): CC(C)[C@@H]1CN(c2ccc(F)c(S(C)(=O)=O)c2)CCN1c1ncc([C@H](C)O)c(C(F)(F)F)n1 [Cpd No 12-2, (S)-1-(2-((R)-4-(4-fluoro-3-(methylsulfonyl)phenyl)-2-isopropylpiperazin-1-yl)-4-(trifluoromethyl)pyrimidin-5-yl)ethan-1-ol]
- Ki (LXR α LBD protein): 233 nM
- Cell LXRα efficacy [1]: 746 (41) %
- EC50 [1]: 746 nM
- EC50 [2]: 117 nM
- Cell LXRβ efficacy ([2]; agonist mode): 117 (36) %
- Ki (LXR β LBD protein): 11 nM

Structure (SMILES): NS(=O)(=O)c1cccc(N2CCN(CC3CCN(CC(F)(F)F)CC3)[C@@H](c3ccccc3)C2)c1 (single isomer, unassigned) [48-81]
- Ki (LXR α LBD protein): 2300 nM
- Cell LXRα efficacy [1]: 1964 (37) %
- EC50 [1, 3]: 1960 nM
- EC50 [2]: 822 nM
- Cell LXRβ efficacy [2, 3]: 822 (9) %
- Ki (LXR β LBD protein; [4]): 479 nM

Structure (SMILES): CS(=O)(=O)c1cc(N2CCN(C[C@H]3CC[C@@H](C(F)(F)F)CC3)[C@H](c3ccccc3)C2)ccc1C#N (single isomer, unassigned) [50-5]
- Ki (LXR α LBD protein): 6550 nM
- Cell LXRα efficacy [1]: 10000 (7) %
- EC50 [1]: 10000 nM
- Cell LXRβ efficacy [2, 3]: 11%
- EC50 ([2]; Biological Test Example 2, agonist mode, read-out: Cell LXRβ EC50): 997 nM
- Ki (LXR β LBD protein; [4]): 688 nM

Structure (SMILES): CC(C)[C@H]1CN(c2ccc(CO)c(S(C)(=O)=O)c2)CCN1C[C@H]1CC[C@@H](C(F)(F)F)OC1 [Cpd No 49-1, (4-((S)-3-isopropyl-4-(((3R,6S)-6-(trifluoromethyl)tetrahydro-2H-pyran-3-yl)methyl)piperazin-1-yl)-2-(methylsulfonyl)phenyl)methanol]
- Ki (LXR α LBD protein): 356 nM
- Cell LXRα efficacy [1]: 195 (64) %
- EC50 [1]: 195 nM
- Cell LXRβ efficacy [2]: 110 (94) %
- EC50 [2]: 110 nM
- Ki (LXR β LBD protein; read-out: LXRβ Binding Ki): 37 nM

Structure (SMILES): CC(C)[C@@H]1CN(c2ccc(CO)c(S(C)(=O)=O)c2)CCN1c1nc(C(F)(F)F)c(C(N)=O)s1 [17-35, (R)-2-(4-(4-(hydroxymethyl)-3-(methylsulfonyl)phenyl)-2-isopropylpiperazin-1-yl)-4-(trifluoromethyl)thiazole-5-carboxamide]
- Ki (LXR α LBD protein): 1660 nM
- Cell LXRα efficacy [1]: 1738 (19) %
- EC50 [1]: 1740 nM
- EC50 [2]: 161 nM
- Cell LXRβ efficacy ([2]; agonist mode): 161 (23) %
- Ki (LXR β LBD protein; read-out: LXRβ Binding Ki): 111 nM

Structure (SMILES): Cc1noc(-c2ccc(N3CCN(c4ncc(CO)c(C(F)(F)F)n4)[C@H](C(C)C)C3)cc2S(C)(=O)=O)n1 [11-10, (R)-(2-(2-isopropyl-4-(4-(3-methyl-1,2,4-oxadiazol-5-yl)-3-(methylsulfonyl)phenyl)piperazin-1-yl)-4-(trifluoromethyl)pyrimidin-5-yl)methanol]
- Ki (LXR α LBD protein): > 3330 nM
- Cell LXRα efficacy [1]: 6291 (28) %
- EC50 ([1]; agonist mode): 6290 nM
- EC50 [2]: 2250 nM
- Cell LXRβ efficacy ([2]; agonist mode): 2253 (36) %
- Ki (LXR β LBD protein; read-out: LXRβ Binding Ki): 773 nM

Structure (SMILES): CS(=O)(=O)c1cccc(N2CCN(C[C@H]3CC[C@](C)(O)CC3)[C@@H](c3ccccc3)C2)c1 (single isomer, unassigned) [Cpd No 48-7]
- Ki (LXR α LBD protein): 4530 nM
- Cell LXRα efficacy [1]: 4661 (6) %
- EC50 [1]: 4660 nM
- EC50 [2, 5]: > 20000 nM
- Ki (LXR β LBD protein; read-out: LXRβ Binding Ki): 465 nM

Structure (SMILES): CC(C)[C@@H]1CN(c2ccc(F)c(S(C)(=O)=O)c2)CCN1c1cncc(C(F)(F)F)c1 [Cpd No 20-1, (R)-4-(4-fluoro-3-(methylsulfonyl)phenyl)-2-isopropyl-1-(5-(trifluoromethyl)pyridin-3-yl)piperazine]
- Ki (LXR α LBD protein): 166 nM
- Cell LXRα efficacy [1]: 678 (90) %
- EC50 [1]: 678 nM
- EC50 [2]: 141 nM
- Cell LXRβ efficacy ([2]; agonist mode): 141 (75) %
- Ki (LXR β LBD protein; read-out: LXRβ Binding Ki): 24 nM

Structure (SMILES): CCN(CCCO)C(=O)c1cnc(N2CCN(c3ccc(F)c(S(C)(=O)=O)c3)C[C@H]2C(C)C)nc1C(F)(F)F [17-15, (R)-N-ethyl-2-(4-(4-fluoro-3-(methylsulfonyl)phenyl)-2-isopropylpiperazin-1-yl)-N-(3-hydroxypropyl)-4-(trifluoromethyl)pyrimidine-5-carboxamide]
- Ki (LXR α LBD protein): > 3330 nM
- EC50 [1]: > 20000 nM
- EC50 [2]: > 20000 nM
- Ki (LXR β LBD protein; read-out: LXRβ Binding Ki): 360 nM

Structure (SMILES): CC(C)[C@H]1CN(c2ccc(CO)c(S(C)(=O)=O)c2)CCN1C[C@@H]1CC[C@@H](C(F)(F)F)OC1 [Cpd No 49-3, (4-((S)-3-isopropyl-4-(((3S,6S)-6-(trifluoromethyl)tetrahydro-2H-pyran-3-yl)methyl)piperazin-1-yl)-2-(methylsulfonyl)phenyl)methanol]
- Ki (LXR α LBD protein): 166 nM
- Cell LXRα efficacy [1]: 178 (75) %
- EC50 [1]: 178 nM
- Cell LXRβ efficacy [2]: 58 (78) %
- EC50 [2]: 58 nM
- Ki (LXR β LBD protein; read-out: LXRβ Binding Ki): 17 nM

Structure (SMILES): CS(=O)(=O)c1cc(N2CCN(C[C@H]3CC[C@@H](C(F)(F)F)CC3)[C@@H](c3ccccc3Cl)C2)ccc1C(N)=O (single isomer, unassigned) [Cpd No 4-8]
- Ki (LXR α LBD protein): 443 nM
- Cell LXRα efficacy [1]: 782 (91) %
- EC50 [1]: 782 nM
- Cell LXRβ efficacy [2]: 545 (59) %
- EC50 [2]: 545 nM
- Ki (LXR β LBD protein; read-out: LXRβ Binding Ki): 80 nM

Structure (SMILES): Cc1cc(C#N)nc(N2CCN(c3ccc(F)c(S(C)(=O)=O)c3)C[C@H]2C(C)C)n1 [7-8, (R)-2-(4-(4-fluoro-3-(methylsulfonyl)phenyl)-2-isopropylpiperazin-1-yl)-6-methylpyrimidine-4-carbonitrile]
- Ki (LXR α LBD protein): > 3330 nM
- Cell LXRα efficacy [1]: 17317 (26) %
- EC50 ([1]; agonist mode): 17300 nM
- EC50 [2]: 1520 nM
- Cell LXRβ efficacy ([2]; agonist mode): 1521 (21) %
- Ki (LXR β LBD protein; read-out: LXRβ Binding Ki): 1010 nM

Structure (SMILES): CC(C)[C@@H]1CN(c2ccc(F)c(S(C)(=O)=O)c2)CCN1C[C@H]1CC[C@@H](C(F)(F)F)CC1 [48-24, (R)-4-(4-fluoro-3-(methylsulfonyl)phenyl)-2-isopropyl-1-(((1s,4S)-4-(trifluoromethyl)cyclohexyl)methyl)piperazine]
- Ki (LXR α LBD protein): 765 nM
- Cell LXRα efficacy [1]: 1347 (88) %
- EC50 [1]: 1350 nM
- Cell LXRβ efficacy ([2]; agonist mode): 63%
- EC50 [2, 5]: 563 nM
- Ki (LXR β LBD protein; read-out: LXRβ Binding Ki): 55 nM

Structure (SMILES): CC(C)[C@H]1CN(c2cccc(S(C)(=O)=O)c2)CCN1Cc1ccc(C(F)(F)F)nc1 [46-41, (S)-2-isopropyl-4-(3-(methylsulfonyl)phenyl)-1-((6-(trifluoromethyl)pyridin-3-yl)methyl)piperazine]
- Ki (LXR α LBD protein): 1310 nM
- Cell LXRα efficacy [1]: 2425 (60) %
- EC50 ([1]; agonist mode): 2420 nM
- EC50 [2]: 559 nM
- Cell LXRβ efficacy ([2]; agonist mode): 559 (68) %
- Ki (LXR β LBD protein; read-out: LXRβ Binding Ki): 161 nM

Structure (SMILES): NS(=O)(=O)c1cccc(N2CCN(C[C@H]3CC[C@H](C(F)F)CC3)[C@@H](c3ccccc3)C2)c1 (single isomer, unassigned) [48-21]
- Ki (LXR α LBD protein): 517 nM
- Cell LXRα efficacy [1]: 2703 (20) %
- EC50 [1]: 2700 nM
- Cell LXRβ efficacy ([2]; agonist mode): 10%
- EC50 [2, 5]: 933 nM
- Ki (LXR β LBD protein; read-out: LXRβ Binding Ki): 175 nM

Structure (SMILES): CC(C)[C@@H]1CN(c2ccc(F)c(S(C)(=O)=O)c2)CCN1c1ncc(CN(C)CCCO)c(C(F)(F)F)n1 [15-9, (R)-3-(((2-(4-(4-fluoro-3-(methylsulfonyl)phenyl)-2-isopropylpiperazin-1-yl)-4-(trifluoromethyl)pyrimidin-5-yl)methyl)(methyl)amino)propan-1-ol]
- Ki (LXR α LBD protein): 2060 nM
- Cell LXRα efficacy [1]: 4170 (10) %
- EC50 ([1]; agonist mode): 4170 nM
- EC50 [2]: > 20000 nM
- Ki (LXR β LBD protein): 146 nM

Structure (SMILES): C[C@H](c1ccc(C(F)(F)F)cc1)N1CCN(c2cccc(S(C)(=O)=O)c2)C[C@H]1c1ccccc1 [46-19, (R)-4-(3-(methylsulfonyl)phenyl)-2-phenyl-1-((R)-1-(4-(trifluoromethyl)phenyl)ethyl)piperazine]
- Ki (LXR α LBD protein): > 3330 nM
- EC50 [1]: > 20000 nM
- Cell LXRβ efficacy [2]: 4348 (6) %
- EC50 [2]: 4350 nM
- Ki (LXR β LBD protein): 1900 nM

Structure (SMILES): CC(C)[C@H]1CN(c2ccc(CO)c(S(C)(=O)=O)c2)CCN1c1ncc(C(C)(C)O)c(C(F)(F)F)n1 [10-5, (S)-2-(2-(4-(4-(hydroxymethyl)-3-(methylsulfonyl)phenyl)-2-isopropylpiperazin-1-yl)-4-(trifluoromethyl)pyrimidin-5-yl)propan-2-ol]
- Ki (LXR α LBD protein): 1280 nM
- Cell LXRα efficacy [1]: 3627 (67) %
- EC50 ([1]; agonist mode): 3630 nM
- EC50 [2]: 980 nM
- Cell LXRβ efficacy ([2]; agonist mode): 980 (58) %
- Ki (LXR β LBD protein; read-out: LXRβ Binding Ki): 230 nM

Structure (SMILES): CO[C@H](C)[C@@H]1CN(c2ccc(CO)c(S(C)(=O)=O)c2)CCN1c1ncc(CO)c(C(F)(F)F)n1 (single isomer, unassigned) [11-5]
- Ki (LXR α LBD protein): > 3330 nM
- Cell LXRα efficacy [1]: 4667 (21) %
- EC50 ([1]; agonist mode): 4670 nM
- EC50 [2]: 363 nM
- Cell LXRβ efficacy ([2]; agonist mode): 363 (16) %
- Ki (LXR β LBD protein): 414 nM

Structure (SMILES): CC(C)[C@@H]1CN(c2cccc(S(C)(=O)=O)c2)CCN1c1ccc(C(F)(F)F)c(C2CC2)n1 [40-4, (R)-1-(6-cyclopropyl-5-(trifluoromethyl)pyridin-2-yl)-2-isopropyl-4-(3-(methylsulfonyl)phenyl)piperazine]
- Ki (LXR α LBD protein): 14 nM
- Cell LXRα efficacy [1]: 1057 (80) %
- EC50 [1]: 1060 nM
- EC50 [2]: 214 nM
- Ki (LXR β LBD protein; read-out: LXRβ Binding Ki): 7 nM

Structure (SMILES): CC(C)[C@H]1CN(c2cccc(S(C)(=O)=O)c2)CCN1CC1CCC(C(F)(F)F)N(C)C1 (stereo partly drawn) [Cpd No 52-1, (2S)-2-isopropyl-1-((1-methyl-6-(trifluoromethyl)piperidin-3-yl)methyl)-4-(3-(methylsulfonyl)phenyl)piperazine]
- Ki (LXR α LBD protein): 144 nM
- Cell LXRα efficacy [1]: 137 (95) %
- EC50 [1]: 137 nM
- EC50 [2]: 46 nM
- Cell LXRβ efficacy [2, 3]: 46 (74) %
- Ki (LXR β LBD protein; [4]): 19 nM

Structure (SMILES): CC(C)[C@@H]1CN(c2ccc(-c3nc(C#N)cs3)c(S(C)(=O)=O)c2)CCN1c1ncc(CO)c(C(F)(F)F)n1 [Cpd No 11-12, (R)-2-(4-(4-(5-(hydroxymethyl)-4-(trifluoromethyl)pyrimidin-2-yl)-3-isopropylpiperazin-1-yl)-2-(methylsulfonyl)phenyl)thiazole-4-carbonitrile]
- Ki (LXR α LBD protein): 194 nM
- Cell LXRα efficacy [1]: 488 (67) %
- EC50 ([1]; agonist mode): 488 nM
- EC50 [2]: 41 nM
- Cell LXRβ efficacy ([2]; agonist mode): 41 (73) %
- Ki (LXR β LBD protein; read-out: LXRβ Binding Ki): 8 nM
